Results: PMC5590646 (Biochemistry, 2015)
Like-named read-outs stand apart in the source and are kept apart here. Marks after values point to notes of the source that are not given here.

Columns and labels:
[1] = system: PR20; assay: DSC thermal stabilisation by inhibitor; type: binding, HIV-1; details: for ΔTm of PR20 smaller than that of PR20^PR-123: DSC, PR20 vs PR20^PR-123
[2] = biological target: PR (pseudo-wild-type mature HIV-1 protease); details: cited from earlier work
[3] = biological target: PR20; details: read-out: inhibition constant Ki; cited from earlier work
[4] = system: PR; details: cited from earlier work
[5] = system: PR20; details: darunavir; cited from earlier work
[6] = system: TFR-PR precursor; details: cited from earlier work; for IC50: read-out: IC50 for inhibition of autoprocessing
[7] = system: TFR-PR20 precursor; details: read-out: IC50 for inhibition of autoprocessing; cited from earlier work

Row | SMILES | ΔTm of PR20 smaller than that of PR20^PR-123 [1] | Ki ([2]; read-out: inhibition constant Ki, darunavir, ref refs and [50]) | Ki [3] | ΔTm (with inhibitor), DSC ([4]; darunavir) | ΔTm (with inhibitor), DSC [5] | concentration that completely inhibits autoprocessing [6] | IC50 [6] | ΔTm (with inhibitor), DSC ([1]; PR20, saquinavir, 2fold molar excess of inhibitor over dimer, buffer A) | Ki ([2]; read-out: inhibition constant Ki, saquinavir) | ΔTm (with inhibitor), DSC ([4]; saquinavir) | IC50 [7]
1 | CC(C)CN(C[C@@H](O)[C@H](Cc1ccccc1)NC(=O)O[C@H]1CO[C@H]2OCC[C@H]21)S(=O)(=O)c1ccc(N)cc1 [darunavir] | 9–11 °C | ≤ 0.01 nM | 41 ± 10 nM | 22.4 ^c °C | 5.3 ^b °C | 1 to 3 µM | 1000 to 2000 nM |  |  |  | 
2 | CC(C)(C)NC(=O)[C@@H]1C[C@@H]2CCCC[C@@H]2CN1C[C@@H](O)[C@H](Cc1ccccc1)NC(=O)[C@H](CC(N)=O)NC(=O)c1ccc2ccccc2n1 [saquinavir] | 9–11 °C |  | 930 ± 93 nM |  |  | 1 to 3 µM | 1000 to 2000 nM | 2.9 °C | 0.28 ± 0.02 nM | 19.3 ^d °C | > 150000 nM
